The target of one series is human PAI-1 (Homo sapiens, UniProt P05121). The series can be described thus: Assay for determining IC50 of inhibition of PAI-1 (active PAI-1 bound to tPA-coated plate, antibody detection). It counts as binding. The settings on record: human PAI-1 50 ng/ml, pH 7.5, tPA-coated plate. As for the experimental part:
Assay for Determining IC50 of Inhibition of PAI-1
This assay was based upon the non-SDS dissociable interaction between tPA and active PAI-1. Assay plates were initially coated with human tPA (10 μg/ml). Test compounds were dissolved in DMSO at 10 mM, then diluted with physiologic buffer (pH 7.5) to a final concentration of 1–50 μM. The test compounds were incubated with human PAI-1 (50 ng/ml) for 15 minutes at room temperature. The tPA-coated plate was washed with a solution of 0.05% Tween 20 and 0.1% BSA, then the plate is blocked with a solution of 3% BSA. An aliquot of the test compound/PAI-1 solution was then added to the tPA-coated plate, incubated at room temperature for 1 hour, and washed. Active PAI-1 bound to the plate was assessed by adding an aliquot of a 1:1000 dilution of the 33B8 monoclonal antibody against human PAI-1, and incubating the plate at room temperature for 1 hour (Molecular Innovations, Royal Oak, Mich.). […] The plate was incubated 45 minutes at room temperature, and color development is determined at OD405nm. The quantitation of active PAI-1 bound to tPA at varying concentrations of the test compound was used to determine the IC50. Results were analyzed using a logarithmic best-fit equation. The assay sensitivity is 5 ng/ml of human PAI-1 as determined from a standard curve ranging from 0–100 ng/ml.

In series [1] the target is T1, recombinant human plasminogen activator inhibitor-1 (Homo sapiens, UniProt P05121).
T1 construct: purchased Molecular Innovations, Royal Oak, Mich
T1 sequence (P05121 24-402): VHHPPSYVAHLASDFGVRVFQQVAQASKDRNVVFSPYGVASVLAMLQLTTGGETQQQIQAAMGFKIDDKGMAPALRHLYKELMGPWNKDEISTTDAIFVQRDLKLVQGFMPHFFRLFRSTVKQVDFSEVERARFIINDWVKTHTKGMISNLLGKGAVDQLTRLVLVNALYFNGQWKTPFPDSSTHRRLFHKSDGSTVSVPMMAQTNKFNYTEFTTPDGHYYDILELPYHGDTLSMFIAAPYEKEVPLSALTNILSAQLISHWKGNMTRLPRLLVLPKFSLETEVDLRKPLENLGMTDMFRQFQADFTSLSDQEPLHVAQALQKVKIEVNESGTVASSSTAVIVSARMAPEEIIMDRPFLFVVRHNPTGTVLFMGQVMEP
The series can be described thus: Primary screen for the PAI-1 inhibition (residual tPA activity, chromogenic substrate Spectrozyme-tPA). The class given is biochemical. The note with it: 25 uM test compound; 140 nM PAI-1, 70 nM tPA, pH 6.6. The method, then: Primary Screen for the PAI-1 Inhibition The ability of the compounds of this invention to inhibit plasminogen activator inhibitor-1 was established by the following experimental procedures: Test compounds were dissolved in DMSO at a final concentration of 10 mM, then diluted 100× in physiologic buffer. The inhibitory assay was initiated by the addition of the test compound (1–100 μM final concentration, maximum DMSO concentration of 0.2%) in a pH 6.6 buffer containing 140 nM recombinant human plasminogen activator inhibitor-1 (Molecular Innovations, Royal Oak, Mich.). Following a 1 hour incubation at room temperature, 70 nM of recombinant human tissue plasminogen activator (tPA) was added, and the combination of the test compound, PAI-1 and tPA was incubated for an additional 30 minutes. Following the second incubation, Spectrozyme-tPA (American Diagnostica, Greenwich, Conn.), a chromogenic substrate for tPA, was added and absorbance was read at 405 nm at 0 and 60 minutes. Relative PAI-1 inhibition was equal to the residual tPA activity in the presence of the test compounds and PAI-1. Control treatments included the complete inhibition of tPA by PAI-1 at the molar ratio employed (2:1), and the absence of any effect of the test compound on tPA alone.

Structures are written as SMILES.

Chain of human PAI-1 (P05121 24-402): as above

The compound `Cc1cccc(-c2ccc3c(c2)c(C(=O)C(=O)NCC(=O)O)cn3Cc2ccc(C(C)(C)C)cc2)c1` [Example 1, {[[1-(4-tert-butylbenzyl)-5-(3-methylphenyl)-1H-indol-3-yl](oxo)acetyl]amino}acetic acid] gave a melting point of 120 to 121 °C. For the same compound, on human PAI-1, the IC50 came out at 29 µM.
The like results for `O=C(O)CNC(=O)C(=O)c1cn(Cc2ccccc2)c2ccc(-c3ccc(OC(F)(F)F)cc3)cc12` [Example 2, 2-[(2-{1-Benzyl-5-[4-(trifluoromethoxy)phenyl]-1H-indol-3-yl}-2-oxoacetyl)amino]acetic acid] were, in that order, 211 to 212 °C (dec.) and 28 µM.
Turning to `CN(CC(=O)O)C(=O)C(=O)c1cn(Cc2ccccc2)c2ccc(-c3cccc(OC(F)(F)F)c3)cc12` [Example 3, 2-[(2-{1-Benzyl-5-[3-(trifluoromethoxy)phenyl]-1H-indol-3-yl}-2-oxoacetyl)(methyl)amino]acetic acid], the melting point lay within 178 to 179 °C. In addition, the inhibition at 25 µM in series [1] is 24%.

Usually IC50 stands for the concentration at which inhibition is half-maximal. Read a high IC50 as weaker potency in that assay. Usually melting point stands for the temperature, or range, at which the solid turns liquid. The term inhibition denotes the relative decrease from the control value, in per cent.

The values are drawn from US7056943B2, “Substituted indole oxo-acetyl amino acetic acid derivatives as inhibitors of plasminogen activator inhibitor-1 (PAI-1)” (Wyeth, priority 2002, dated 2006).
